Results: PubChem BioAssay (NCI)
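Five compound concentrations were applied to cells in 96-well plates for 48 hours; endpoints were derived by simple linear interpolation of the resulting dose-response curve. The concentration for full growth arrest is given as TGI.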

Assays:
Assay in all cases: growth of human tumour cells (NCI), 48 h
[1] = system: DMS 273 small cell lung
[2] = system: OVCAR-5 ovarian
[3] = system: SNB-75 CNS
[4] = system: KM12 colon
[5] = system: RXF-631 renal
[6] = system: OVCAR-4 ovarian
[7] = system: SN12C renal
[8] = system: MOLT-4 leukemia
[9] = system: 786-0 renal
[10] = system: DLD-1 colon
[11] = system: EKVX NSCLC
[12] = system: HCT-116 colon
[13] = system: DMS 114 small cell lung
[14] = system: UO-31 renal
[15] = system: SR leukemia
[16] = system: UACC-257 melanoma
[17] = system: HOP-18 NSCLC
[18] = system: NCI-H522 lung
[19] = system: CAKI-1 renal
[20] = system: SNB-19 CNS
[21] = system: ACHN renal
[22] = system: CCRF-CEM leukemia
[23] = system: A549 NSCLC
[24] = system: MALME-3M melanoma
[25] = system: HCT-15 colon
[26] = system: SK-MEL-5 melanoma
[27] = system: SW-620 colon
[28] = system: HOP-92 NSCLC
[29] = system: HL-60(TB) leukemia
[30] = system: HCC-2998 colon
[31] = system: IGROV1 ovarian
[32] = system: SK-OV-3 ovarian
[33] = system: SF-295 CNS
[34] = system: K-562 leukemia
[35] = system: SF-268 CNS
[36] = system: SF-539 CNS
[37] = system: TK-10 renal
[38] = system: U251 CNS
[39] = system: NCI-H23 lung
[40] = system: M14 melanoma
[41] = system: OVCAR-3 ovarian
[42] = system: KM20L2 colon
[43] = system: NCI-H460 lung
[44] = system: M19-MEL melanoma
[45] = system: HOP-62 NSCLC
[46] = system: UACC-62 melanoma
[47] = system: SNB-78 CNS
[48] = system: COLO 205 colon
[49] = system: NCI-H226 lung
[50] = system: OVCAR-8 ovarian
[51] = system: LXFL 529 NSCLC
[52] = system: SK-MEL-28 melanoma
[53] = system: HT29 colon
[54] = system: A498 renal
[55] = system: XF 498 CNS
[56] = system: LOX IMVI melanoma
[57] = system: RXF 393 renal
[58] = system: RPMI-8226 leukemia
[59] = system: SK-MEL-2 melanoma

COc1cc(C(=O)C(CO)Oc2ccccc2OC)ccc1O (centres undefined)
TGI [1]: > 100 µM
TGI [2]: > 100 µM
TGI [3]: > 100 µM
TGI [4]: > 100 µM
TGI [5]: > 100 µM
TGI [6]: > 100 µM
TGI [7]: > 100 µM
TGI [8]: > 100 µM
TGI [9]: > 100 µM
TGI [10]: > 100 µM
TGI [11]: > 100 µM
TGI [12]: > 100 µM
TGI [13]: > 100 µM
TGI [14]: > 100 µM
TGI [15]: > 100 µM
TGI [16]: > 100 µM
TGI [17]: > 100 µM
TGI [18]: > 100 µM
TGI [19]: > 100 µM
TGI [20]: > 100 µM
TGI [21]: > 100 µM
TGI [22]: > 100 µM
TGI [23]: > 100 µM
TGI [24]: > 100 µM
TGI [25]: > 100 µM
TGI [26]: > 100 µM
TGI [27]: > 100 µM
TGI [28]: > 100 µM
TGI [29]: > 100 µM
TGI [30]: > 100 µM
TGI [31]: > 100 µM
TGI [32]: > 100 µM
TGI [33]: > 100 µM
TGI [34]: > 100 µM
TGI [35]: > 100 µM
TGI [36]: > 100 µM
TGI [37]: > 100 µM
TGI [38]: > 100 µM
TGI [39]: > 100 µM
TGI [40]: > 100 µM
TGI [41]: > 100 µM
TGI [42]: > 100 µM
TGI [43]: > 100 µM
TGI [44]: > 100 µM
TGI [45]: > 100 µM
TGI [46]: > 100 µM
TGI [47]: > 100 µM
TGI [48]: > 100 µM
TGI [49]: > 100 µM
TGI [50]: > 100 µM
TGI [51]: > 100 µM
TGI [52]: > 100 µM
TGI [53]: > 100 µM

COC(=O)C(Cc1c[nH]c2ccccc12)NC(=O)C(Cc1c[nH]c2ccccc12)NC(=O)OCc1ccccc1 (centres undefined)
TGI [54]: > 100 µM
TGI [1]: 29.8 µM
TGI [2]: 31.5 µM
TGI [55]: 30.7 µM
TGI [3]: 39.9 µM
TGI [4]: 33.5 µM
TGI [5]: 51.1 µM
TGI [6]: 30.1 µM
TGI [7]: 30.9 µM
TGI [9]: 29.7 µM
TGI [10]: 32.7 µM
TGI [11]: 33.5 µM
TGI [12]: 32.4 µM
TGI [13]: 33.5 µM
TGI [14]: 44 µM
TGI [16]: > 100 µM
TGI [18]: 32.2 µM
TGI [19]: 40 µM
TGI [20]: 31.6 µM
TGI [21]: 39.2 µM
TGI [56]: 32.2 µM
TGI [22]: 61.3 µM
TGI [23]: 33 µM
TGI [24]: > 100 µM
TGI [25]: 31.3 µM
TGI [26]: 82.2 µM
TGI [27]: 31.3 µM
TGI [28]: 48.6 µM
TGI [29]: 48.7 µM
TGI [30]: 31.6 µM
TGI [31]: 36.6 µM
TGI [32]: 34.3 µM
TGI [33]: 31.9 µM
TGI [34]: 56.6 µM
TGI [35]: 34.6 µM
TGI [57]: 35.1 µM
TGI [36]: 30.4 µM
TGI [37]: 41.4 µM
TGI [38]: 30.6 µM
TGI [39]: 32.2 µM
TGI [40]: 38 µM
TGI [41]: 29 µM
TGI [42]: 32.2 µM
TGI [43]: 32 µM
TGI [44]: 32.4 µM
TGI [45]: 37.6 µM
TGI [46]: 33.4 µM
TGI [47]: 60.2 µM
TGI [58]: 34.6 µM
TGI [48]: 30.6 µM
TGI [49]: 40.3 µM
TGI [50]: 31.7 µM
TGI [51]: 31.2 µM
TGI [52]: 31.8 µM
TGI [53]: 34.7 µM

CC12OC3(O)C4C5CC(C6C5C3C61)C42 (centres undefined)
TGI [59]: > 100 µM
TGI [1]: > 100 µM
TGI [3]: > 100 µM
TGI [4]: > 100 µM
TGI [5]: > 100 µM
TGI [6]: > 100 µM
TGI [7]: > 100 µM
TGI [8]: > 100 µM
TGI [9]: > 100 µM
TGI [10]: > 100 µM
TGI [12]: > 100 µM
TGI [13]: > 100 µM
TGI [14]: > 100 µM
TGI [15]: > 100 µM
TGI [16]: > 100 µM
TGI [17]: > 100 µM
TGI [18]: > 100 µM
TGI [19]: > 100 µM
TGI [20]: > 100 µM
TGI [21]: > 100 µM
TGI [22]: > 100 µM
TGI [23]: > 100 µM
TGI [24]: > 100 µM
TGI [25]: > 100 µM
TGI [27]: > 100 µM
TGI [29]: > 100 µM
TGI [30]: > 100 µM
TGI [32]: > 100 µM
TGI [34]: > 100 µM
TGI [35]: > 100 µM
TGI [57]: > 100 µM
TGI [36]: > 100 µM
TGI [37]: > 100 µM
TGI [38]: > 100 µM
TGI [40]: > 100 µM
TGI [42]: > 100 µM
TGI [44]: > 100 µM
TGI [45]: > 100 µM
TGI [46]: > 100 µM
TGI [47]: > 100 µM
TGI [58]: > 100 µM
TGI [48]: > 100 µM
TGI [49]: > 100 µM
TGI [50]: > 100 µM
TGI [51]: 53.1 µM
TGI [52]: > 100 µM
